Experimental data taken from patent US6677313B1, “Method for gene therapy using nucleic acid loaded polymeric microparticles” (Brown University Research Foundation, priority 1995, dated 2004).

Test: in vivo
Conditions: rat, serum, po, 25 mg/kg
Protocol: Dicumarol containing microspheres were produced as described above in Example 2, subsection 1. Equal doses of dicumarol, spray dried dicumarol and polyanhydride (FA:SA) 20:80 encapsulated dicumarol (25 mg drug/kg body weight) suspended in 1.5 ml maple syrup were fed to catheterized rats (250-350 g). Blood samples were taken at regular intervals and serum was assayed for dicumarol concentrations using a UV spectrophotometric method.

AUC: 171 ± 33.2 µg·h/mL | Cmax: 11500 ± 1100 ng/mL | Tmax: 9.87 ± 1.76 h | half-life: 18.2 ± 3.3 h
Structure (SMILES): O=c1oc2ccccc2c(O)c1Cc1c(O)c2ccccc2oc1=O [STOCK DICUMAROL CONTROL, dicumarol]
